The record followed here is patent US20250145599A1, “CERTAIN CHEMICAL ENTITIES, COMPOSITIONS, AND METHODS” (Retune Pharma Inc., priority 2022, published 2025).

Each structure is given as a SMILES string.

The target of the experiment is IGF-1R (Homo sapiens, UniProt P08069). The experiment in a line: IGF-1R biochemical assay (ADP-Glo). The note with it: read-out: IGF1R IC50. The procedure: The inhibitory activity against IGF-1R was measured using ADP-Glo assay. The percent (%) inhibition at each concentration of compound is calculated based on and relative to the luminescence signal in the Max and Min control wells contained within each assay plate. The Max control wells contain enzyme and substrate as 0% inhibition, and the Min control wells only contain substrate without enzyme as 100% inhibition. The concentrations and % inhibition values for tested compounds are plotted and the concentration of compound required for 50% inhibition (IC50) is determined with a four-parameter logistic dose response equation.
IGF-1R, sequence (P08069 31-1367): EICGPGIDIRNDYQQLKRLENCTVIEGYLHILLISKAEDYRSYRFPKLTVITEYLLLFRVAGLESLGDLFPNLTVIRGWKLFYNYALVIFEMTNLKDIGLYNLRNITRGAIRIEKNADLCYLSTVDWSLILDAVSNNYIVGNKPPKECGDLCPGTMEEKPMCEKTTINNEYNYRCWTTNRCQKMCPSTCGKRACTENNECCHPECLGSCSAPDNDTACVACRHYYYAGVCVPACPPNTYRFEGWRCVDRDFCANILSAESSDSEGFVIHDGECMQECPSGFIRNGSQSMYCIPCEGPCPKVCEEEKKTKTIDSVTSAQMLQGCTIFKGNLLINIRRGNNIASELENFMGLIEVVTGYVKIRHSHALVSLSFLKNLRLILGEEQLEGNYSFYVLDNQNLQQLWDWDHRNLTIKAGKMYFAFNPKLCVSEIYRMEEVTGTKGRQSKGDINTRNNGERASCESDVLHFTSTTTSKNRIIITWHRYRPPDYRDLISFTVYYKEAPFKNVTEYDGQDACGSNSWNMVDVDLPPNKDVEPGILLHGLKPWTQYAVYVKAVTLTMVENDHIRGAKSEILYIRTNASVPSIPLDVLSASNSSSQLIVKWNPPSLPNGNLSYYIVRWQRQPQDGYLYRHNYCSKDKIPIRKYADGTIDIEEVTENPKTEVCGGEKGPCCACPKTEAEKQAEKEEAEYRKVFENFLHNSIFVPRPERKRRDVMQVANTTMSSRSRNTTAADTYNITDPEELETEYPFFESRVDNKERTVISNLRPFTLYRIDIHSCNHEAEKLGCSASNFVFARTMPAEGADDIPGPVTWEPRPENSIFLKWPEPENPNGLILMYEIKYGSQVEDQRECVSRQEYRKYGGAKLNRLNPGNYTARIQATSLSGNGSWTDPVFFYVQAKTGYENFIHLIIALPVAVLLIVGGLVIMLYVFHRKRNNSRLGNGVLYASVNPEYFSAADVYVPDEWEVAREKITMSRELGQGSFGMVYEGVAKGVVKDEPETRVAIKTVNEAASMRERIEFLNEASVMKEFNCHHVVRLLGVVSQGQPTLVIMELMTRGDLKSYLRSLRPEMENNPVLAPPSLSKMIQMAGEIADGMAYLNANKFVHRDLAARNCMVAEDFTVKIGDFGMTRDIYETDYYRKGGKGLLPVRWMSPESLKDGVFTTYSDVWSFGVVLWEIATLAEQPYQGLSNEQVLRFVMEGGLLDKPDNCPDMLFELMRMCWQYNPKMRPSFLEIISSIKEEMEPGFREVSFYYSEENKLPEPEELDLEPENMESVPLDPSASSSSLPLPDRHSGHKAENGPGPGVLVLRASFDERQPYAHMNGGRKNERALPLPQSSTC
Table 3 provides IC50 data of representative compounds against IGF-1R using ADP-Glo assay. The IC50 data are designated within the following ranges: A: ≤0.10 μM, B: >0.10 μM to ≤1 μM, C: >1 μM to ≤20 μM
A general note: In ADP-Glo the light output rises with the ADP produced.
Broadly, the IC50 is the point on the concentration scale where inhibition reaches its midpoint. Turning to `C[C@]1(O)C[C@@H](n2nc(-c3ccc4ccc(-c5ccccc5)nc4c3F)c(C(N)=O)c2N)C1` [Example C028, 5-amino-3-(8-fluoro-2-phenylquinolin-7-yl)-1-((1s,3s)-3-hydroxy-3-methylcyclobutyl)-1H-pyrazole-4-carboxamide], the IC50 is no more than 0.1 µM.
Next, `CC(=O)N1CCC(n2nc(-c3ccc4ccc(-c5ccccc5)nc4c3)c(C(N)=O)c2N)CC1` [Example C010, 1-(1-acetylpiperidin-4-yl)-5-amino-3-(2-phenylquinolin-7-yl)-1H-pyrazole-4-carboxamide]: 1 to 20 µM; `NC(=O)c1c(-c2ccc3ccc(-c4ccccc4)nc3c2)nn(C2CC(=O)C2)c1N` [Example C001, 5-amino-1-(3-oxocyclobutyl)-3-(2-phenylquinolin-7-yl)-1H-pyrazole-4-carboxamide]: 1 to 20 µM.
For `CCOC(=O)[C@H]1C[C@@H](n2nc(-c3ccc4ccc(-c5ccccc5)nc4c3)c(C(N)=O)c2N)C1` [Example C011, ethyl (1s,3s)-3-(5-amino-4-carbamoyl-3-(2-phenylquinolin-7-yl)-1H-pyrazol-1-yl)cyclobutane-1-carboxylate] the value was 0.1 to 1 µM; for `COc1cc(-c2ccccc2F)nc2cc(-c3nn([C@H]4C[C@](C)(O)C4)c(N)c3C(N)=O)ccc12` [Example C047, 5-amino-3-(2-(2-fluorophenyl)-4-methoxyquinolin-7-yl)-1-((1r,3r)-3-hydroxy-3-methylcyclobutyl)-1H-pyrazole-4-carboxamide], no more than 0.1 µM; for `NC(=O)c1c(-c2ccc3ccc(-c4ccccc4)nc3c2)nn([C@H]2C[C@H](CN3CCNCC3)C2)c1N` [Example C016, 5-amino-3-(2-phenylquinolin-7-yl)-1-((1r,3r)-3-(piperazin-1-ylmethyl)cyclobutyl)-1H-pyrazole-4-carboxamide], no more than 0.1 µM.
For `C[C@]1(O)C[C@H](n2nc(-c3ccc4ccc(-c5ccccc5)nc4c3)c(C(N)=O)c2N)C1` [Example C006, 5-amino-1-((1r,3r)-3-hydroxy-3-methylcyclobutyl)-3-(2-phenylquinolin-7-yl)-1H-pyrazole-4-carboxamide] the value was 0.1 to 1 µM; for `NC(=O)c1c(-c2ccc3ccc(-c4ccccc4)nc3c2)nn(C2CCNCC2)c1N` [Example C002, 5-amino-3-(2-phenylquinolin-7-yl)-1-(piperidin-4-yl)-1H-pyrazole-4-carboxamide], 0.1 to 1 µM.
As to `C[C@]1(O)C[C@@H](n2nc(-c3ccc4cc(F)c(-c5ccccc5)nc4c3F)c(C(N)=O)c2N)C1` [Example C059, 5-amino-3-(3,8-difluoro-2-phenylquinolin-7-yl)-1-((1s,3s)-3-hydroxy-3-methylcyclobutyl)-1H-pyrazole-4-carboxamide], the IC50 lay within 0.1 to 1 µM.
For `COc1cc(-c2ccccc2)nc2cc(-c3nn([C@H]4C[C@@](C)(O)C4)c(N)c3C(N)=O)cc(F)c12` [Example C055, 5-amino-3-(5-fluoro-4-methoxy-2-phenylquinolin-7-yl)-1-((1s,3s)-3-hydroxy-3-methylcyclobutyl)-1H-pyrazole-4-carboxamide] the value was 0.1 to 1 µM; for `NC(=O)c1c(-c2ccc3ccc(-c4ccccc4)nc3c2)nn(C2CCN(CCO)CC2)c1N` [Example C008, 5-amino-1-(1-(2-hydroxyethyl)piperidin-4-yl)-3-(2-phenylquinolin-7-yl)-1H-pyrazole-4-carboxamide], 0.1 to 1 µM; for `NC(=O)c1c(-c2ccc3ccc(-c4ccccc4)nc3c2)nn([C@H]2C[C@@H](C(=O)O)C2)c1N` [Example C017, (1s,3s)-3-(5-amino-4-carbamoyl-3-(2-phenylquinolin-7-yl)-1H-pyrazol-1-yl)cyclobutane-1-carboxylic acid], 1 to 20 µM.
For `COc1cc(-c2cccc(F)c2)nc2cc(-c3nn([C@H]4C[C@](C)(O)C4)c(N)c3C(N)=O)ccc12` [Example C049, 5-amino-3-(2-(3-fluorophenyl)-4-methoxyquinolin-7-yl)-1-((1r,3r)-3-hydroxy-3-methylcyclobutyl)-1H-pyrazole-4-carboxamide] the value was no more than 0.1 µM; for `C[C@]1(O)C[C@@H](n2nc(-c3ccc4ccc(-c5ccccn5)nc4c3F)c(C(N)=O)c2N)C1` [Example C057, 5-amino-3-(8-fluoro-2-(pyridin-2-yl)quinolin-7-yl)-1-((1s,3s)-3-hydroxy-3-methylcyclobutyl)-1H-pyrazole-4-carboxamide], 0.1 to 1 µM.
For `COC(=O)N1CCC(n2nc(-c3ccc4ccc(-c5ccccc5)nc4c3)c(C(N)=O)c2N)CC1` [Example C004, methyl 4-(5-amino-4-carbamoyl-3-(2-phenylquinolin-7-yl)-1H-pyrazol-1-yl)piperidine-1-carboxylate] the value was 1 to 20 µM.
As for `CC(C)n1nc(-c2ccc3ccc(-c4ccccc4)nc3c2)c(C(N)=O)c1N` [Example C024, 5-amino-1-isopropyl-3-(2-phenylquinolin-7-yl)-1H-pyrazole-4-carboxamide], the IC50 was in the range of 0.1 to 1 µM.
Next, `NC(=O)c1c(-c2ccc3ccc(-c4ccccc4)nc3c2)nn([C@H]2C[C@@H](O)C2)c1N` [Example C009, 5-amino-1-((1s,3s)-3-hydroxycyclobutyl)-3-(2-phenylquinolin-7-yl)-1H-pyrazole-4-carboxamide]: 1 to 20 µM; `C[C@]1(O)C[C@@H](n2nc(-c3ccc4c(O)cc(-c5ccccc5)nc4c3F)c(C(N)=O)c2N)C1` [Example C042, 5-amino-3-(8-fluoro-4-hydroxy-2-phenylquinolin-7-yl)-1-((1s,3s)-3-hydroxy-3-methylcyclobutyl)-1H-pyrazole-4-carboxamide]: 1 to 20 µM.
Next, `NC(=O)c1c(-c2ccc3ccc(-c4ccccc4)nc3c2)nn(C2CCN(C(N)=O)CC2)c1N` [Example C003, 4-(5-amino-4-carbamoyl-3-(2-phenylquinolin-7-yl)-1H-pyrazol-1-yl)piperidine-1-carboxamide]: 1 to 20 µM; `NC(=O)c1c(-c2ccc3ccc(-c4ccccc4)nc3c2)nn(C2CC(N3CCC3)C2)c1N` (stereo not shown) [Example C027, 5-amino-1-(3-(azetidin-1-yl)cyclobutyl)-3-(2-phenylquinolin-7-yl)-1H-pyrazole-4-carboxamide]: 0.1 to 1 µM.
Next, `NC(=O)c1c(-c2ccc3ccc(-c4ccccc4)nc3c2)nn([C@H]2C[C@@H](CN3CCNCC3)C2)c1N` [Example C015, 5-amino-3-(2-phenylquinolin-7-yl)-1-((1s,3s)-3-(piperazin-1-ylmethyl)cyclobutyl)-1H-pyrazole-4-carboxamide]: no more than 0.1 µM.
For `NC(=O)c1c(-c2ccc3ccc(-c4ccccc4)nc3c2)nn(C2CC(N3CCOCC3)C2)c1N` (stereo not shown) [Example C023, 5-amino-1-(3-morpholinocyclobutyl)-3-(2-phenylquinolin-7-yl)-1H-pyrazole-4-carboxamide], the 50% inhibitory concentration (IC50) is no more than 0.1 µM.
Regarding `NC(=O)c1c(-c2ccc3ccc(-c4ccccc4)nc3c2)nn([C@H]2C[C@H](CN3CCC3)C2)c1N` [Example C014, 5-amino-1-((1r,3r)-3-(azetidin-1-ylmethyl)cyclobutyl)-3-(2-phenylquinolin-7-yl)-1H-pyrazole-4-carboxamide], the IC50 was no more than 0.1 µM.
Consider `NC(=O)c1c(-c2ccc3ccc(-c4ccccc4)nc3c2)nn(C2CC(N3CCNCC3)C2)c1N` (stereo not shown) [Example C025, 5-amino-3-(2-phenylquinolin-7-yl)-1-(3-(piperazin-1-yl)cyclobutyl)-1H-pyrazole-4-carboxamide], for which the concentration for half-maximal inhibition (IC50) is no more than 0.1 µM.
For the compound `C[C@]1(O)C[C@@H](n2nc(-c3ccc4ccc(-c5cccc(F)c5)nc4c3)c(C(N)=O)c2N)C1` [Example C041, 5-amino-3-(2-(3-fluorophenyl)quinolin-7-yl)-1-((1s,3s)-3-hydroxy-3-methylcyclobutyl)-1H-pyrazole-4-carboxamide], the IC50 was no more than 0.1 µM.
Next, `C[C@]1(O)C[C@@H](n2nc(-c3ccc4cnc(-c5ccccc5)nc4c3)c(C(N)=O)c2N)C1` [Example C054, 5-amino-1-((1s,3s)-3-hydroxy-3-methylcyclobutyl)-3-(2-phenylquinazolin-7-yl)-1H-pyrazole-4-carboxamide]: 1 to 20 µM; `COc1nc(-c2ccccc2)nc2cc(-c3nn([C@H]4C[C@@](C)(O)C4)c(N)c3C(N)=O)ccc12` [Example C064, 5-amino-1-((1s,3s)-3-hydroxy-3-methylcyclobutyl)-3-(4-methoxy-2-phenylquinazolin-7-yl)-1H-pyrazole-4-carboxamide]: 0.1 to 1 µM; `CCOc1cc(-c2ccccc2)nc2cc(-c3nn(C4CC(=O)C4)c(N)c3C(N)=O)ccc12` [Example C043, 5-amino-3-(4-ethoxy-2-phenylquinolin-7-yl)-1-(3-oxocyclobutyl)-1H-pyrazole-4-carboxamide]: no more than 0.1 µM.
For `CCOC(=O)[C@]1(C)C[C@@H](n2nc(-c3ccc4ccc(-c5ccccc5)nc4c3)c(C(N)=O)c2N)C1` [Example C020, ethyl (1r,3r)-3-(5-amino-4-carbamoyl-3-(2-phenylquinolin-7-yl)-1H-pyrazol-1-yl)-1-methylcyclobutane-1-carboxylate] the value was 0.1 to 1 µM.
For `C[C@]1(O)C[C@@H](n2nc(-c3ccc4c(OC(F)F)cc(-c5ccccc5)nc4c3F)c(C(N)=O)c2N)C1` [Example C044, 5-amino-3-(4-(difluoromethoxy)-8-fluoro-2-phenylquinolin-7-yl)-1-((1s,3s)-3-hydroxy-3-methylcyclobutyl)-1H-pyrazole-4-carboxamide] the value was no more than 0.1 µM.
`COc1cc(-c2ccccc2)nc2cc(-c3nn([C@H]4C[C@](C)(O)C4)c(N)c3C(N)=O)c(F)cc12` [Example C052, 5-amino-3-(6-fluoro-4-methoxy-2-phenylquinolin-7-yl)-1-((lr,3r)-3-hydroxy-3-methylcyclobutyl)-1H-pyrazole-4-carboxamide]: the IC50 is no more than 0.1 µM.
